Experimental data: patent US12194084B2 (priority 2019, dated 2025)

What was measured:
DN1 T cells = assay type: cell-based, mouse; conditions: screen of 6 common adjuvants, CD69 on DN1 T cells
Experimental: 24 h later, the percentage of DN1 T cells expressing CD69 was determined by FACS. Data are representative of two experiments.

[1] = test system: lymphocytes from MLN of Mtb-infected mice; assay: Recall response to Mtb lipids in Mtb-infected hCD1Tg mice (IFN-γ ELISPOT); assay type: cell-based

Substance	enhancement of a suboptimal dose of MA-MC (DN1 T cells)	T cell responses to Mtb lipid [1]
cyclic-di-GMP	top three candidates	–
monophosphoryl lipid A [MPLA]	top three candidates	–
Sulfoglycolipid [SGL]	–	readily detected
Glucose monomycolate [GMM]	–	readily detected
